Consider 13 compounds from US20090143279A1 (priority 2007, published 2009).

Assay [1] concerns mitochondrial membrane potential. Format: cell-based, mouse. The conditions noted are these: for ΔΨm (composite Z-score): normalized score vs mock-treated (DMSO) wells.
Assay [2] deals with reactive oxygen species. The class given is cell-based, mouse. The conditions noted are these: for ROS (composite Z-score): normalized score vs mock-treated (DMSO) wells.
For assay [3], the system named is OXPHOS gene expression. The class given is cell-based, mouse. The conditions noted are these: for GE-HTS (composite Z-score): normalized score vs mock-treated (DMSO) wells.
Assay [4] deals with nuOXPHOS transcripts. Format: cell-based, mouse. The conditions noted are these: for nucOX (composite Z-score): normalized score vs mock-treated (DMSO) wells.
Assay [5] concerns mtOXPHOS transcripts. Format: cell-based, mouse. The note with it: for mitoOX (composite Z-score): normalized score vs mock-treated (DMSO) wells.
Assay [6] relates to cytochrome c. The class given is cell-based, mouse. The conditions noted are these: for cyt c (composite Z-score): normalized score vs mock-treated (DMSO) wells.
Assay [7] deals with C2C12 myotubes. The conditions noted are these: for Viability (composite Z-score): normalized score vs mock-treated (DMSO) wells.
The test system of assay [8] is cellular dehydrogenase activity. The conditions noted are these: for MTT (composite Z-score): normalized score vs mock-treated (DMSO) wells.
[9] abbreviates: 13.14 μM, composite Z-score vs DMSO.
[10] abbreviates: 20 μM, composite Z-score vs DMSO.
Where [11] appears, read: 7.92 μM, composite Z-score vs DMSO.
The mark [12] stands for this setting: composite Z-score vs mock-treated (DMSO) wells, concentration of each compound in μM.
Setting [13] is: composite Z-score vs DMSO wells, Conc 20 μM.
Setting [14] is: normalized score (composite Z-score vs DMSO mock-treated wells), compound concentration (μM).
[15] abbreviates: normalized composite Z-score vs mock-treated (DMSO) wells, Conc 20 μM.
[16] abbreviates: composite Z-score vs DMSO, Conc 20 μM.

Read-outs that look alike come from different tables or passages of the source.

As for `O=C(O)CCCc1ccc(N(CCCl)CCCl)cc1` [chlorambucil], the ΔΨm is given as 0.199 in assay [1] (setting [9]) and −0.826 in assay [1] (setting [10]). The ROS in assay [2] (setting [9]) came out at 0.056; in assay [2] (setting [10]), 0.165. In addition, the GE-HTS in assay [3] (setting [9]) came to 0.249; in assay [3] (setting [10]) it was 0.725. Further, the figures for the nucOX in assay [4] (setting [9]) and in assay [4] (setting [10]) were 0.147 and 0.360, respectively. Moreover, the mitoOX in assay [5] (setting [9]) came out at 0.398; in assay [5] (setting [10]), 1.273. The cyt c in assay [6] (setting [9]) is recorded as 0.035; in assay [6] (setting [10]), −0.955. In addition, the results for the Viability in assay [7] (setting [9]) and in assay [7] (setting [10]) were −0.507 and −0.007, respectively. The values for the MTT in assay [8] (setting [9]) and in assay [8] (setting [10]) were −0.069 and −1.519, respectively.

On to `[H]/N=C(\N/C(=N/[H])NCCCCCCNC(=N)NC(=N)Nc1ccc(Cl)cc1)Nc1ccc(Cl)cc1` [chlorhexidine], for which the figures for the ΔΨm in assay [1] (setting [11]) and in assay [1] (setting [10]) were 0.348 and 0.412, respectively. For the same compound, the ROS in assay [2] (setting [11]) was −2.490; in assay [2] (setting [10]) it was 1.660. The figures for the GE-HTS in assay [3] (setting [11]) and in assay [3] (setting [10]) were 0.775 and −0.455, respectively. In addition, the nucOX in assay [4] (setting [11]) is 0.990; in assay [4] (setting [10]) it was −0.592. In addition, the figures for the mitoOX in assay [5] (setting [11]) and in assay [5] (setting [10]) were 0.140 and −0.141, respectively. In addition, the cyt c is 0.090 in assay [6] (setting [11]) and −1.683 in assay [6] (setting [10]). The Viability in assay [7] (setting [11]) was −1.859; in assay [7] (setting [10]), −0.976. In addition, the MTT is −4.138 in assay [8] (setting [11]) and −2.340 in assay [8] (setting [10]).

In assay [1] (setting [10]), `Cc1cc(O)ccc1Cl` [chlorocresol] gave a ΔΨm of 0.528. The ROS in assay [2] (setting [10]) is on record as 0.102. This compound came in with a GE-HTS in assay [3] (setting [10]) of 0.206. In assay [4] (setting [10]), the nucOX is on record as 0.611. Moreover, the mitoOX in assay [5] (setting [10]) is reported as −0.728. Also, the cyt c in assay [6] (setting [10]) is 0.747. In assay [7] (setting [10]), this compound displayed a Viability of −0.414. This compound returned an MTT in assay [8] (setting [10]) of −0.607.

With `C=Cc1c(C)c2cc3nc(c4c5[n-]c(cc6nc(cc1[n-]2)C(C)=C6CC)c(C)c5C(=O)[C@@H]4C(=O)OC)[C@@H](CCC(=O)O)[C@@H]3C.[Mg+2]` [chlorophyllide], the ΔΨm in assay [1] (setting [12]) is −0.783. Moreover, the ROS in assay [2] (setting [12]) was 1.042. In assay [3] (setting [12]), this compound yielded a GE-HTS of 0.282. In assay [4] (setting [12]), this compound came in with a nucOX of 0.303. Further, the mitoOX in assay [5] (setting [12]) amounted to 0.224. The compound also returned a cyt c in assay [6] (setting [12]) of −1.157. In assay [7] (setting [12]), the Viability is listed as −0.178. The MTT in assay [8] (setting [12]) came out at 0.307.

For `NS(=O)(=O)c1cc2c(cc1Cl)N=CNS2(=O)=O` [chlorothiazide], the ΔΨm in assay [1] (setting [13]) was −0.831. Moreover, the ROS in assay [2] (setting [13]) was determined as 1.202. Further, in assay [3] (setting [13]), the GE-HTS was −0.331. For the same compound, in assay [4] (setting [13]), the nucOX is given as −0.608. Also, the mitoOX in assay [5] (setting [13]) is given as 0.221. Moreover, the cyt c was determined as 0.431 in assay [6] and 0.566 in assay [6] (setting [13]). Further, the Viability in assay [7] (setting [13]) is given as 0.116. Further, in assay [8] (setting [13]), the MTT is reported as −0.711.

In assay [1] (setting [13]), `Oc1c(Cl)cc(Cl)c2cccnc12` [chloroxine] returned a ΔΨm of 1.120. Further, the ROS in assay [2] (setting [13]) is reported as −2.934. The same compound registered a GE-HTS in assay [3] (setting [13]) of −1.089. Besides, the nucOX in assay [4] (setting [13]) is given as −0.461. This compound also gave a mitoOX in assay [5] (setting [13]) of −2.181. Also, the cyt c in assay [6] (setting [13]) is −0.800. Also, the Viability in assay [7] (setting [13]) was −1.392. The same compound had an MTT in assay [8] (setting [13]) of −2.014.

In turn, `Cc1cc(O)cc(C)c1Cl` [chloroxylenol] displayed a ΔΨm in assay [1] (setting [10]) of −0.917. Besides, the ROS in assay [2] (setting [10]) was determined as 2.165. The same compound displayed a GE-HTS in assay [3] (setting [10]) of −0.811. In assay [4] (setting [10]), this compound showed a nucOX of −0.857. The compound further returned a mitoOX in assay [5] (setting [10]) of −0.614. The compound further showed a cyt c in assay [6] (setting [10]) of 0.499. Moreover, the Viability in assay [7] (setting [10]) is recorded as −0.639. This compound gave an MTT in assay [8] (setting [10]) of −2.046.

In turn, `OCC(O)COc1ccc(Cl)cc1` (stereo not drawn) [chlorphensin] came in with a ΔΨm in assay [1] (setting [14]) of −0.419. For the same compound, the ROS in assay [2] (setting [14]) is 0.692. This compound showed a GE-HTS in assay [3] (setting [14]) of −0.696. For the same compound, the nucOX in assay [4] (setting [14]) is listed as −0.613. The mitoOX in assay [5] (setting [14]) is listed as −0.766. Besides, the cyt c in assay [6] (setting [14]) was −0.522. In assay [7] (setting [14]), this compound showed a Viability of −1.132. In assay [8] (setting [14]), the MTT was −0.356.

Consider `NS(=O)(=O)c1cc(C2(O)NC(=O)c3ccccc32)ccc1Cl` (stereo not drawn) [chlorthalidone], for which the values for the ΔΨm in assay [1] and in assay [1] (setting [10]) were −0.750 and −0.257, respectively. For the same compound, the ROS was found to be 1.047 in assay [2] and 1.655 in assay [2] (setting [10]). Also, the GE-HTS in assay [3] is listed as −0.236; in assay [3] (setting [10]) it was 0.793. Besides, the nucOX is on record as −0.009 in assay [4] and 0.646 in assay [4] (setting [10]). The mitoOX is reported as −0.641 in assay [5] and 0.877 in assay [5] (setting [10]). The cyt c was found to be 0.531 in assay [6] and 0.066 in assay [6] (setting [10]). For the same compound, the Viability came out at 0.081 in assay [7] and 0.308 in assay [7] (setting [10]). Besides, the MTT in assay [8] was −1.736; in assay [8] (setting [10]), −1.134.

Take `C[C@H](CCC(=O)O)[C@H]1CC[C@H]2[C@@H]3CCC4CCCC[C@]4(C)[C@H]3C=C[C@]12C` (stereo partly drawn) [chol-11-enic acid]: the ΔΨm in assay [1] (setting [15]) is recorded as −0.652. This compound had an ROS in assay [2] (setting [15]) of 0.737. Moreover, in assay [3] (setting [15]), the GE-HTS is reported as −0.069. The nucOX in assay [4] (setting [15]) is −0.195. In assay [5] (setting [15]), this compound displayed a mitoOX of 0.246. Also, in assay [6] (setting [15]), the cyt c stood at 0.383. Further, the Viability in assay [7] (setting [15]) is on record as −0.456. Moreover, in assay [8] (setting [15]), the MTT is −1.164.

With `CC(C)CCC[C@@H](C)[C@H]1CC[C@H]2[C@@H]3C[C@@H](O)[C@@]4(O)C[C@@H](O)CC[C@]4(C)[C@H]3CC[C@]12C` [cholestan-3beta,5alpha,6beta-triol], in assay [1] (Conc 20 μM), the “ΔΨm (composite Z-score)” value is given as −0.575. Besides, the “ROS (composite Z-score)” value in assay [2] (Conc 20 μM) came to 1.000. Moreover, in assay [3] (Conc 20 μM), the “GE-HTS (composite Z-score)” value amounted to 0.382. Besides, in assay [4] (Conc 20 μM), the “nucOX (composite Z-score)” value was found to be 0.523. Further, the “mitoOX (composite Z-score)” value in assay [5] (Conc 20 μM) was 0.074. Besides, the “cyt c (composite Z-score)” value in assay [6] (Conc 20 μM) is listed as 0.815. In addition, in assay [7] (Conc 20 μM), the “Viability (composite Z-score)” value is listed as −0.869. Further, the “MTT (composite Z-score)” value in assay [8] (Conc 20 μM) is listed as 0.120.

For the compound `CC(C)CCC[C@@H](C)[C@H]1CC[C@H]2[C@@H]3CCC4CCCC[C@]4(C)[C@H]3CC[C@]12C` (stereo partly drawn) [cholestane], the ΔΨm in assay [1] (setting [16]) is listed as −0.945. The same compound showed an ROS in assay [2] (setting [16]) of 0.155. The GE-HTS in assay [3] (setting [16]) is recorded as −0.678. In assay [4] (setting [16]), this compound displayed a nucOX of −0.651. The compound also came in with a mitoOX in assay [5] (setting [16]) of −0.640. In assay [6] (setting [16]), this compound registered a cyt c of 0.043. In addition, the Viability in assay [7] (setting [16]) stood at 0.941. Also, the MTT in assay [8] (setting [16]) is −1.057.

In the case of `CC(C)CCC[C@@H](C)C1CC[C@H]2[C@@H]3CCC4CC(=O)CC[C@]4(C)[C@H]3CC[C@]12C` (stereo partly drawn) [cholestanone], the “ΔΨm (composite Z-score)” value in assay [1] (Conc 20 μM) is −1.065. Also, in assay [2] (Conc 20 μM), the “ROS (composite Z-score)” value amounted to 1.864. In assay [3] (Conc 20 μM), the “GE-HTS (composite Z-score)” value was 0.165. For the same compound, the “nucOX (composite Z-score)” value in assay [4] (Conc 20 μM) worked out at 0.147. Further, the “mitoOX (composite Z-score)” value in assay [5] (Conc 20 μM) is reported as 0.214. Besides, in assay [6] (Conc 20 μM), the “cyt c (composite Z-score)” value amounted to 0.272. Moreover, the “Viability (composite Z-score)” value in assay [7] (Conc 20 μM) is recorded as −0.208. Besides, the “MTT (composite Z-score)” value in assay [8] (Conc 20 μM) is given as −2.192.
